Data: patent publication US11104926B1, “Pro-fluorophore compounds and use thereof” (Vanderbilt University, priority 2018, dated 2021)
“Also recorded” adds a separate entry of the source.

Key:
wild-type HEK293 cells [1] = assay: Confocal fluorescence microscopy of wild-type HEK293 cells; format: cell-based; conditions: treated 1 h at 22° C. (FIG. 4 panels d-f)
Description: (§1) Microscopy. Confocal images were acquired using a Nikon MR (Nikon Instruments) laser scanning confocal microscope equipped with plan apochromat violet corrected 1.4 numerical aperture (N.A.) oil immersion lens. Hoescht images were obtained using a 405 nm laser and 425-475 nm emission filter. Pro-fluorophore (1c) was imaged using a 488 nm laser and 500-550 nm emission filter. Cells for imaging study were cultured overnight on no. 1 chambered slides (lab-tek II, ThermoFisher) in medium previously described in kinetic imaging assays. Medium was removed and pro-fluorophore was added to the slide chambers in assay buffer containing Hoescht, 1 μg/mL. […]

[2] = test system: HEK293 cells expressing PLE; assay: Confocal fluorescence microscopy of PLE-expressing HEK293 cells; format: cell-based; conditions: treated 1 h at 22° C. (FIG. 4 panels a-c)
Description: as §1

wild-type HEK293 cells [3] = assay: Pro-fluorophore activation in wild-type HEK293 cells (kinetic imaging plate reader); format: cell-based; conditions: 3 μM (FIG. 3A)
Description: (§2) Wild-type HEK293 and PLE-expressing HEK293 cells maintained in α-MEM (Corning) containing 10% vol/vol fetal bovine serum (Thermo-Fisher Scientific) and 1% vol/vol GlutaGro (Corning) (cell culture medium) were seeded with 20,000 cells/well in 20 μL of cell culture medium into amine-coated, clear-bottom, and black-walled 384-well plate (BD Biosciences). Plates were then incubated overnight at 37° C. in a 5% CO2 cell culture incubator. Following overnight incubation, cell culture medium was removed and replaced with 20 μL/well assay buffer. Rhodamine-amide profluorophores dissolved in DMSO at 10 mM were diluted into assay buffer at concentrations ranging from 50 μM-70 nM. Forty μL/well of pro-fluorophore solutions were placed in polypropylene 384-well plates (Greiner). Immediately before the beginning of data acquisition, the assay buffer was removed from the cell-containing plates. The cell-containing and pro-fluorophore containing plates where then immediately loaded into a Panoptic kinetic imaging plate reader. Images were acquired at 1 Hz (excitation 480±20 nm and 540±30 nm) for 30 seconds, then 20 μL/well of the pro-fluorophore solutions were added to the cell-containing plates and imaging continued for an additional 15 minutes.

[4] = test system: porcine liver esterase (PLE); assay: In vitro activation of rhodamine-amide pro-fluorophores by PLE (kinetic fluorescence plate assay); format: biochemical; conditions: for conversion to the fluorescent Rhodamine 110 by PLE (in words): 10 μM, 2 min, 22° C., 30 nM PLE (FIG. 2B); for quality as PLE substrate (in words): in vitro and in cells, comparison within the library; for Km: Table 1, PLE activation
Description: To investigate the ability of PLE to activate various rhodamine-amide pro-fluorophores, the compounds were dissolved in DMSO to a concentration of 100 mM and serially diluted in DMSO in 10, 3-fold steps. The compounds were then added to the well of a low volume, cyclic olefin copolymer 384-well plate (Labcyte). Forty nL/well of pro-fluorophore solution were transferred to black-walled, clear-bottom, polystyrene 384-well plates (Greiner) using an Echo plate reformatter (Labcyte). Following compound transfer, […] of phosphate-buffered saline (PBS) was added to each well and thoroughly mixed. PLE (Sigma, 46058) dissolved in PBS at a concentration of 60 nM and 40 μL of this solution was added to the wells of a polypropylene 384-well plate (Greiner). Pro-fluorophore-containing and PLE-containing plates were placed in a Panoptic kinetic imaging plate reader (WaveFront Biosciences). Images were acquired at 1 Hz (excitation 480±20 nm and 540±30 nm) for 30 seconds, then 20 μL/well of the PLE solutions were added to the pro-fluorophore-containing plates and imaging continued for an additional 15 minutes. In addition to the pro-fluorophore-containing plates, a plate containing PBS only was imaged as was a plate containing a concentration series of Rhodamine 110.

[5] = test system: HEK293 cells stably expressing PLE; assay: Pro-fluorophore activation in PLE-expressing HEK293 cells (kinetic imaging plate reader); format: cell-based; conditions: for rank of fold increase in fluorescence in cells (in words) / Fold Increase in Fluorescence: 10 μM; for rank of fold increase in fluorescence in cells (in words): PLE-expressing vs wild-type HEK293 (Table 2); for Fold Increase in Fluorescence: PLE-expressing HEK293 divided by wild-type HEK293, 5 min after addition, mean (SEM) of 4 replicates
Source text: Cell-based assays. To construct a PLE-expressing HEK293 cell line, a PLE-IRES-mCherry construct was excised from the pCAG-PLE-IRES-mCherry (Addgene plasmid #45766) vector using Not1-HF and Xho1 (Tian et al., Proceedings of the National Academy of Sciences, 2012, 109, 4756-4761). The PLE-IRES-mCherry insert was then cloned into pcDNA3.1/Zeo vector (Thermo Fisher Scientific). The pcDNA3.1/Zeo PLE-IRES-mCherry vector was introduced to HEK293 (ATCC) using FuGENE HD (Promega). PLE-expressing cells were selected for using Zeocin.
as §2

[6] = listed as N,N′-dipropionyl rhodamine

Structure (SMILES)	conversion to the fluorescent Rhodamine 110 by PLE (in words) [4]	quality as PLE substrate (in words) [4]	rank of fold increase in fluorescence in cells (in words) [5]	Fold Increase in Fluorescence [5]	Km [4] [µM]	other results
CCC(=O)Nc1ccc2c(c1)Oc1cc(NC(=O)CC)ccc1C21OC(=O)c2ccccc21 [Compound 1c, N,N′-bis-propionyl rhodamine]	most effective conversion	good PLE substrates	largest fold increase in fluorescence	725 (±2.1)	–	confocal fluorescence in wild-type HEK293 cells (in words) (wild-type HEK293 cells [1]): no fluorescence was observed; confocal fluorescence in PLE-expressing HEK293 cells (in words) [2]: bright, predominantly cytoplasmic, fluorescence; confocal fluorescence in PLE-expressing HEK293 cells (in words) [2, 6]: bright, cytoplasmic fluorescence; fluorescence upon addition to wild-type HEK293 cells (in words) (wild-type HEK293 cells [3]): no increase in fluorescence was observed; quality as PLE substrate (in words) [4, 6]: better substrates than the others; fluorescence upon addition to PLE-expressing HEK293 cells (in words) ([5]; 3 μM, 384-well plate (FIG. 3A)): rapid increase in fluorescence
CC(=O)Nc1ccc2c(c1)Oc1cc(NC(C)=O)ccc1C21OC(=O)c2ccccc21 [Compound 1b, N,N′-bis-acetyl rhodamine]	–	less preferred substrate; also recorded: poor substrate	–	37 (±0.2)	–	–
O=C(Nc1ccc2c(c1)Oc1cc(NC(=O)c3ccccc3)ccc1C21OC(=O)c2ccccc21)c1ccccc1 [Compound 1f, N,N′-bis-benzoyl rhodamine]	–	–	–	119 (±1.2)	7.45	–
CC(C)C(=O)Nc1ccc2c(c1)Oc1cc(NC(=O)C(C)C)ccc1C21OC(=O)c2ccccc21 [Compound 1d, N,N′-bis-isobutyl rhodamine]	–	–	–	458 (±1.6)	–	–
O=C1OC2(c3ccc(NC(=O)C(F)(F)F)cc3Oc3cc(NC(=O)C(F)(F)F)ccc32)c2ccccc21 [Compound 1a, N,N′ bis-triflouroacetyl rhodamine]	most effective conversion	good PLE substrates	largest fold increase in fluorescence	5701 (±26.4)	2.06	quality as PLE substrate (in words) ([4]; listed as N,N′-ditrifluoroacetyl): better substrates than the others; rank of fold increase in fluorescence in cells (in words) ([5]; listed as N,N′-ditrifluoroacetyl rhodamine): largest increase in fluorescence
CC(C)(C)C(=O)Nc1ccc2c(c1)Oc1cc(NC(=O)C(C)(C)C)ccc1C21OC(=O)c2ccccc21 [Compound 1e, N,N′-bis-pivaloyl rhodamine]	–	–	–	87 (±0.4)	–	–
